The subject of experiment [1] is SMN protein. Put plainly: SMN protein assay (HTRF) in SMA patient fibroblast cells. Format: cell-based, human. As to conditions: SMA patient fibroblasts. The source says: The term “EC1.5x concentration for SMN protein expression” (or “EC1.5x SMN protein”) is defined as that concentration of test compound that is effective in producing 1.5 times the amount of SMN protein in an SMA patient fibroblast cell compared to the amount produced from the vehicle control.
(A) SMN2 splicing in SMA Type 1 fibroblasts. (B) SMN protein in SMA Type 1 fibroblasts. (C) SMN protein in SMA Type 1 motor neurons. (D) SMN1 and SMN2 splicing in whole blood derived from HV. […] SMN splicing was assessed by RT-PCR, and SMN protein levels were assessed by homogenous time-resolved fluorescence (HTRF) in fibroblast lysates, and by immunostaining for SMN in motor neurons. Data represent means standard error (SEM) of 3 evaluations per data point and are expressed as fold change vs. untreated controls.
The SMN HTRF (homogeneous time resolved fluorescence) assay is used to quantify the level of SMN protein in SMA patient fibroblast cells treated with test compounds. […]
Cells are thawed and cultured in DMEM-10% FBS for 72 hours. Cells are trypsinized, counted and re-suspended to a concentration of 25,000 cells/mL in DMEM-10% FBS. […] Fluorescence for each well of the plate at 665 nm and 620 nm is measured on an EnVision multilabel plate reader (Perkin-Elmer). […]
(In general: Time-resolved FRET reads energy transfer from a long-lived donor to a nearby acceptor.)

Experiment [2] deals with SMN protein. The experiment is described as follows: SMN protein in brain and quadriceps muscle of C/C-allele mice (HTRF). The class given is in vivo, mouse. On the procedure:
(A) SMN protein in brains of C/C-allele mice. (B) SMN protein in brains of SMNΔ7 mice. (C) SMN protein in quadriceps muscle of C/C-allele mice. (D) SMN protein in quadriceps muscle of SMNΔ7 mice. C/C-allele mice and SMNΔ7 mice were treated with the compound of Example 20. One hour after the last dose, brains and quadriceps muscles were collected and levels of SMN protein were assessed by HTRF. Data represent means SEM of 5-6 animals per group and are expressed as fold change vs. vehicle-treated controls. *=p<0.05, **=p<0.01, ***=p<0.001 vs. untreated controls.
In vivo, the compound of Example 20 increases SMN protein in the brain and muscle in the severe SMNΔ7 model and the milder C/C-allele model, carrying human SMN2 transgenes. Adult C/C-allele mice were treated for 10 days with vehicle or the compound of Example 20 (1, 3 or 10 mg/kg PO, daily), and 3 days old (P3) SMNΔ7 mice were treated for 7 days with vehicle or the compound of Example 20 (0.1, 0.3, 1 or 3 mg/kg IP, daily). […] In SMNΔ7 mice, the SMN protein increase was only partial in both brain and muscle, reaching approximately 43% (brain) and 55% (muscle) of protein levels in heterozygous mice.

Experiment [3] has as its system SMNΔ7 mice. Put plainly: Survival and body weight of SMNΔ7 mice. The class given is in vivo, mouse. The protocol:
FIG. 3. in vivo Effects of treatment SMNΔ7 mice with 7-(4,7-diazaspiro[2.5]octan-7-yl)-2-(2,8-dimethylimidazo[1,2-b]pyridazin-6-yl)pyrido[1,2-a]pyrimidin-4-one (Example 20). SMNΔ7 mice were treated with the compound of Example 20 from P3 onwards and animal survival (A) and body weight (B) were assessed daily until P100. Data represent means SEM of 10-12 mice per group. HET=heterozygous littermates.
Functional benefits were assessed in the severe and mild SMA mouse models. SMNΔ7 mice were treated from P3 to P23 once daily by IP injection of vehicle or the compound of Example 20, and from P24 onwards once daily by oral gavage. During the treatment period, body weight and animal survival were monitored. Over the 100-day observation period, only two heterozygous littermates died. In contrast, all vehicle-treated mice died before P21 with a median survival time (MST) of 10.5 days.

In experiment [4] the test system is SMNΔ7 mice. Put plainly: Neuromuscular connectivity and muscle atrophy in SMNΔ7 mice (immunohistochemistry). Format: in vivo, mouse. The settings on record: 0.1, 0.3, 1 mg/kg IP once per day, P3 to P14. On the procedure: SMNΔ7 mice were treated with the compound of Example 20 from P3 to P14, and neuromuscular connectivity and muscle atrophy were assessed by immunohistochemistry. (A) vGlut1-positive proprioceptive inputs in L3-5 spinal cord. (B) Ventral motor axons in L3-5 spinal cord. (C) NMJ innervation onto longissimus muscle. (D) EDL muscle cross-sectional area. Data represent means SEM of 4-5 mice per group. *=p<0.05; **=p<0.01; ***=p<0.001 vs. vehicle-treated SMNΔ7 mice.
Lastly, the compound of Example 20 improves neuromuscular connectivity in a severe SMA mouse model in vivo. SMNΔ7 mice were treated from P3 to P14 by IP application of vehicle or 0.1, 0.3, 1 mg/kg Example 20 once per day. At P14, 1 hour after the last dose spinal cord and muscle tissues were processed for histological assessment.

We go through one compound from patent US11938136B2, “Compositions for treating spinal muscular atrophy” (Hoffmann-La Roche Inc., priority 2015, dated 2024).

SMILES strings stand for the structures.

With `Cc1cn2nc(-c3cc(=O)n4cc(N5CCNC6(CC6)C5)ccc4n3)cc(C)c2n1` [Example 20, 7-(4,7-diazaspiro[2.5]octan-7-yl)-2-(2,8-dimethylimidazo[1,2-b]pyridazin-6-yl)pyrido[1,2-a]pyrimidin-4-one], the “maximal increase in SMN protein above untreated cells” value in the experiment on SMN protein [1] is given as 60-80%. Further, in the experiment with SMN protein [2] (C/C-allele mice, 10 mg/kg dose), the “SMN levels in muscle compared with heterozygous mice” value is “no different from those in heterozygous mice”. In addition, the “maximum increase of SMN protein levels in brain and muscle tissue” value in the experiment on SMN protein [2] (adult C/C-allele mice, 10 mg/kg PO daily, 10 days) is given as 2-3 fold. The “recovery in body weight gain as compared to heterozygous littermates” value in the experiment on SMNΔ7 mice [3] (high dose) was found to be 85%; in the experiment on SMNΔ7 mice [3] (mid dose) it was 71%; in the experiment on SMNΔ7 mice [3] (mid/high dose) it was 82%. For the same compound, the “animals surviving up to P100” value in the experiment with SMNΔ7 mice [3] (high dose: 3 mg/kg IP through P23 and 10 mg/kg PO thereafter) was 73%; in the experiment on SMNΔ7 mice [3] (mid dose: 0.3 mg/kg IP through P23 and 1 mg/kg PO thereafter), 80%; in the experiment on SMNΔ7 mice [3] (mid/high dose: 1 mg/kg IP through P23 and 3 mg/kg PO thereafter), 82%. For the same compound, the “correction of impaired body weight increase” value with SMNΔ7 mice [3] (low dose) is on record as “only mildly corrected”. Moreover, the “fiber size in extensor digitorum longus (EDL) muscles relative to vehicle-treated SMNΔ7 mice” value in the experiment on SMNΔ7 mice [4] is “dose-dependently and significantly increased”. In addition, the “number of motor axons relative to vehicle-treated SMNΔ7 mice” value in the experiment with SMNΔ7 mice [4] is “dose-dependently and significantly increased”. Also, the “number of vGlut1 inputs relative to vehicle-treated SMNΔ7 mice” value with SMNΔ7 mice [4] was “dose-dependently and significantly increased”. In the experiment with SMNΔ7 mice [4] (longissimus muscle), the “percentage of fully innervated NMJs relative to vehicle-treated SMNΔ7 mice” value was “dose-dependently and significantly increased”.
